Among the data in patent US20240239806A1, “COMPOUNDS, COMPOSITIONS AND METHODS OF TREATING DISORDERS” (Chengdu Anticancer Bioscience, Ltd., priority 2021, published 2024) are minimal effective concentration and IC50 values, retold here.

For the experiment, the system named is RPEMYC^H2B-GFP cells. The experiment can be described thus: Phenotypic screening assay (mitotic arrest, polyploidy). Conditions: 1 nM to 30 μM; for IC50: read-out: Proliferative arrest (>50%). Type of experiment: cell-based. How it is done:
We have previously developed a mechanism-informed phenotypic screening assay to identify novel antimitotic agents. Equipped with a prior understanding of the versatile functions of the chromosomal passenger protein (CPP) complex in orchestrating karyokinesis and cytokinesis, the screening assay is to score for phenotypes typically seen when the CPP complex is disabled. Specifically, the parameters for a positive hit are a temporary elevation of mitotic index (MI) at 24 hours of drug treatment and an accumulation of polyploid cells at 48 hours of drug treatment, indicative of mitotic arrest and cytokinetic failure respectively. These parameters exclude compounds that elicit only a prolonged arrest of cells in mitosis, a phenotype typically provoked by spindle toxins. The screening procedure is briefly summarized here. RPEMYC^H2B-GFP cells engineered to express a Histone 2B-EGFP fusion protein were passaged as batches of 96-well plates, 18-24 hours before exposure to the chemical compounds of the present disclosure at concentrations from 1 nM to 30 μM. At 24, 48 or 72 hours after initiation of treatment, cells were analyzed for either an arrest in mitosis or a change in DNA content by GE IN-Cell Analyzer 2000. As set forth in Table 2 below, a value of greater than or equal to 1 nM and less than or equal to 1.0 μM is marked “A”; a value greater than 1.00 μM and less than or equal to 10.0 μM is marked “B”; a value greater than 10.0 μM and less than or equal to 30.0 μM is marked “C”; and a value greater than 30.0 μM is marked “D.”

Where [1] appears, read: read-out: Min. Effective conc. for Polyploidy (≥5%).

Read-outs that look alike come from different tables or passages of the source.

In the case of `COc1cc(Oc2ccnc3ccc(Br)cc23)cc(-c2nc(C)no2)c1` [Compound 67, 5-(3-((6-Bromoquinolin-4-yl)oxy)-5-methoyphenyl)-3-methyl-1,2,4-oxadiazole], the IC50 was in the range of 0.001 to 1 µM. Besides, under setting [1], the minimal effective concentration is 0.001 to 1 µM. Further, the minimal effective concentration (read-out: Mitotic Arrest (≥5%)) lay within 0.001 to 1 µM.

`COc1cc(NC(C)=O)cc(Oc2ccnc3ccc(C(=O)N(C)C)cc23)c1` [Compound 58, 4-(3-acetamido-5-methoxyphenoxy)-N, N-dimethylquinoline-6-carboxamide]: the IC50 is 1 to 10 µM. Further, the minimal effective concentration under setting [1] fell in the range of 1 to 10 µM. Also, for the setting “read-out: Mitotic Arrest (≥5%)”, the minimal effective concentration lay within 1 to 10 µM.

With `CNC(=O)c1cc(OC)cc(Oc2ccnc3cc(OC)c(C(N)=O)cc23)c1` [Compound 71, 7-Methoxy-4-(3-methoxy-5-(methylcarbamoyl)phenoxy) quinoline-6-carboxamide], the IC50 lay in the range of 1 to 10 µM. Moreover, the minimal effective concentration under setting [1] fell in the range of 1 to 10 µM. Where the note is “read-out: Mitotic Arrest (≥5%)”, the minimal effective concentration fell in the range of 1 to 10 µM.

As for `CNC(=O)c1cc(OC)cc(Oc2ccnc3ccc(C(F)(F)F)cc23)c1` [Compound 70, 3-Methoxy-N-methyl-5-((6-(trifluoromethyl)quinolin-4-yl)oxy) benzamide], the IC50 was 1 to 10 µM. Moreover, the minimal effective concentration under setting [1] lay in the range of 1 to 10 µM. The minimal effective concentration (read-out: Mitotic Arrest (≥5%)) fell in the range of 1 to 10 µM.

For `COc1cc(NC(C)=O)cc(Oc2ccnc3ccc(Cl)cc23)c1` [Compound 50, N-(3-((6-chloroquinolin-4-yl)oxy)-5-methoxyphenyl) acetamide], the IC50 was 0.001 to 1 µM. Besides, the minimal effective concentration under setting [1] lay in the range of 0.001 to 1 µM. Moreover, for the setting “read-out: Mitotic Arrest (≥5%)”, the minimal effective concentration lay within 0.001 to 1 µM.

For the compound `COc1cc(Oc2ccnc3cc(OC)c(C(N)=O)cc23)cc(O[C@H]2CCOC2)c1` [Compound 80, (S)-7-methoxy-4-(3-methoxy-5-((tetrahydrofuran-3-yl)oxy)phenoxy)quinoline-6-carboxamide], the minimal effective concentration lay in the range of 0.001 to 1 µM under setting [1] and 0.001 to 1 µM (read-out: Mitotic Arrest (≥5%)).

Turning to `COc1cc(Oc2cc(Cl)nc3ccc(Br)cc23)cc([N+](=O)[O-])c1` [Compound 97, 4-(3-methoxy-5-nitrophenoxy)-6-bromo-2-chloroquinoline], the minimal effective concentration was above 30 µM under setting [1] and above 30 µM (read-out: Mitotic Arrest (≥5%)).

Consider `COc1cc(Oc2ccnc3cc(OC)c(C(N)=O)cc23)cc(-n2cc(C)cn2)c1` [Compound 84], for which the minimal effective concentration under setting [1] was 0.001 to 1 µM and the minimal effective concentration (read-out: Mitotic Arrest (≥5%)) was 0.001 to 1 µM.

As for `COc1cc(Oc2ccnc3cc(OC)c(C(N)=O)cc23)cc(-c2nc(C)no2)c1` [Compound 64, 7-Methoxy-4-(3-methoxy-5-(3-methyl-1,2,4-oxadiazol-5-yl)phenoxy)quinoline-6-carboxamide], the IC50 fell in the range of 0.001 to 1 µM. Further, the minimal effective concentration under setting [1] was 0.001 to 1 µM. Also, for the setting “read-out: Mitotic Arrest (≥5%)”, the minimal effective concentration lay in the range of 0.001 to 1 µM.

Turning to `CNC(=O)c1cc(OC)cc(Oc2ccnc3ccccc23)c1` [Compound 10, 3-methoxy-N-methyl-5-(quinolin-4-yloxy)benzamide], the IC50 fell in the range of 1 to 10 µM. For the same compound, under setting [1], the minimal effective concentration fell in the range of 1 to 10 µM. Moreover, the minimal effective concentration (read-out: Mitotic Arrest (≥5%)) fell in the range of 0.001 to 1 µM.

`COc1cc(Oc2ccnc3ccccc23)cc(C(=O)O)c1` [Compound 9, 3-methoxy-5-(quinolin-4-yloxy) benzoic add]: the IC50 is above 30 µM. The minimal effective concentration under setting [1] is above 30 µM. Moreover, under “read-out: Mitotic Arrest (≥5%)”, the minimal effective concentration was above 30 µM.

In the case of `COc1cc(Oc2ccnc3cc(OC)c(C(N)=O)cc23)cc(-c2nnc(C)o2)c1` [Compound 87, 7-methoxy-4-(3-methoxy-5-(5-methyl-1,3,4-oxadiazol-2-yl)phenoxy)quinoline-6-carboxamide], the minimal effective concentration reads like this: under setting [1], 0.001 to 1 µM; (read-out: Mitotic Arrest (≥5%)) 0.001 to 1 µM.

Consider `COc1cc(Oc2ncnc3ccccc23)cc(-n2cnc(C)c2)c1` [Compound 76, 4-(3-Methoxy-5-(4-methyl-1H-imidazol-1-yl)phenoxy)quinazoline], for which the IC50 lay in the range of 1 to 10 µM. Also, the minimal effective concentration under setting [1] fell in the range of 1 to 10 µM. In addition, the minimal effective concentration (read-out: Mitotic Arrest (≥5%)) is 1 to 10 µM.

On to `COc1cc(NC(C)=O)cc(Oc2ccnc3ccc(I)cc23)c1` [Compound 60, N-(3-((6-iodoquinolin-4-yl)oxy)-5-methoxyphenyl) acetamide], for which the IC50 is 0.001 to 1 µM. In addition, the minimal effective concentration under setting [1] was 0.001 to 1 µM. Besides, the minimal effective concentration (read-out: Mitotic Arrest (≥5%)) lay within 0.001 to 1 µM.

Consider `COC(=O)c1cc(OC)cc(Oc2ncnc3sccc23)c1` [Compound 41, methyl 3-methoxy-5-(thieno[2,3-d]pyrimidin-4-yloxy)benzoate], for which the IC50 lay in the range of 0.001 to 1 µM. Besides, under setting [1], the minimal effective concentration lay within 0.001 to 1 µM. Further, the minimal effective concentration (read-out: Mitotic Arrest (≥5%)) fell in the range of 0.001 to 1 µM.

Turning to `COc1cc(Oc2ccnc3ccc(C(F)(F)F)cc23)cc(-n2cccn2)c1` [Compound 49, 4-(3-Methoxy-5-(1H-pyrazol-1-yl)phenoxy)-6-(trifluoromethyl) quinoline], the IC50 was in the range of 0.001 to 1 µM. In addition, the minimal effective concentration under setting [1] is 0.001 to 1 µM. Besides, the minimal effective concentration (read-out: Mitotic Arrest (≥5%)) fell in the range of 0.001 to 1 µM.

For the compound `CNC(=O)c1cc2c(Oc3cc(NC(C)=O)cc(OC)c3)ccnc2cc1OC` [Compound 45, 4-(3-Acetamido-5-methoxyphenoxy)-7-methoxy-N-methylquinoline-6-carboxamide], the IC50 lay in the range of 1 to 10 µM. The minimal effective concentration under setting [1] fell in the range of 1 to 10 µM. Moreover, the minimal effective concentration (read-out: Mitotic Arrest (≥5%)) is 1 to 10 µM.

For the compound `COc1cc(Oc2ccnc3cc(OC)c(OC)cc23)cc(-c2ncccn2)c1` [Compound 63, 6,7-Dimethoxy-4-(3-methoxy-5-(pyrimidin-2-yl)phenoxy) quinoline], the IC50 was 0.001 to 1 µM. Further, the minimal effective concentration under setting [1] fell in the range of 0.001 to 1 µM. Moreover, the minimal effective concentration (read-out: Mitotic Arrest (≥5%)) was in the range of 0.001 to 1 µM.

Turning to `CCOc1cc(Oc2ccnc3cc(OC)c(C(N)=O)cc23)cc(-n2cccn2)c1` [Compound 59, 4-(3-ethoxy-5-(1H-pyrazol-1-yl)phenoxy)-7-methoxyquinoline-6-carboxamide], the IC50 lay in the range of 0.001 to 1 µM. Moreover, under setting [1], the minimal effective concentration is 0.001 to 1 µM. The minimal effective concentration (read-out: Mitotic Arrest (≥5%)) was 0.001 to 1 µM.

As for `COc1cc(Oc2ncnc3cc(OC)c(OC)cc23)cc(-n2cnc(C)c2)c1` [Compound 75, 4-(3-Methoxy-5(4-methyl-H-imidazol-1-yl)phenoxy)-6,7-dimethoxyquinazoline], the IC50 was 0.001 to 1 µM. Further, the minimal effective concentration under setting [1] was 0.001 to 1 µM. The minimal effective concentration (read-out: Mitotic Arrest (≥5%)) was in the range of 0.001 to 1 µM.

Take `Cc1cc(Oc2ccnc3ccc(C(N)=O)cc23)cc(-n2cccn2)c1` [Compound 1, 4-(3-methyl-5-(1H-pyrazol-1-yl)phenoxy)quinoline-6-carboxamide]: the minimal effective concentration reads like this: under setting [1], 0.001 to 1 µM; (read-out: Mitotic Arrest (≥5%)) 0.001 to 1 µM.

Turning to `COc1cc(Oc2ccnc3cc(OC)c(C(N)=O)cc23)cc(OC2CCOC2)c1` (stereo not drawn) [Compound 6, 7-methoxy-4-(3-methoxy-5-((tetrahydrofuran-3-yl)oxy)phenoxy)quinoline-6-carboxamide], the minimal effective concentration under setting [1] is 0.001 to 1 µM and the minimal effective concentration (read-out: Mitotic Arrest (≥5%)) was 0.001 to 1 µM.

In the case of `COc1cc(OC)cc(Oc2ncnc3ccn(C)c23)c1` [Compound 54, 4-(3,5-Dimethoxyphenoxy)-5-methyl-5H-pyrrolo[3,2-d] pyrimidine], the IC50 was in the range of 10 to 30 µM. Further, under setting [1], the minimal effective concentration was 10 to 30 µM. The minimal effective concentration (read-out: Mitotic Arrest (≥5%)) is 1 to 10 µM.

Turning to `COc1cc(Oc2ccnc3ccc(Br)cc23)cc([N+](=O)[O-])c1` [Compound 93, 4-(3-methoxy-5-nitrophenoxy)-6-bromoquinone], the minimal effective concentration under setting [1] fell in the range of 0.001 to 1 µM and the minimal effective concentration (read-out: Mitotic Arrest (≥5%)) is 0.001 to 1 µM.

Consider `COc1cc(Oc2ccnc3cc(OC)c(Br)cc23)cc(-n2cccn2)c1` [Compound 88, 6-bromo-7-methoxy-4-(3-methoxy-5-(1H-pyrazol-1-yl)phenoxy)quinoline], for which the minimal effective concentration lay in the range of 0.001 to 1 µM under setting [1] and 0.001 to 1 µM (read-out: Mitotic Arrest (≥5%)).

For `COc1cc(NC(C)=O)cc(Oc2ncnc3ccn(C)c23)c1` [Compound 56, N-(3-methoxy-5-((5-methyl-5H-pyrrolo[3,2-d]pyrimidin-4-yl)oxy)phenyl) acetamide], the IC50 is 10 to 30 µM. Further, the minimal effective concentration under setting [1] lay in the range of 10 to 30 µM. Further, the minimal effective concentration (read-out: Mitotic Arrest (≥5%)) was 1 to 10 µM.

For `COc1cc2nccc(Oc3cc(-n4cccn4)cc(-n4cccn4)c3)c2cc1C(N)=O` [Compound 4, 4-(3,5-di(1H-pyrazol-1-yl)phenoxy)-7-methoxyquinoline-6-carboxamide], the minimal effective concentration was 0.001 to 1 µM under setting [1] and 0.001 to 1 µM (read-out: Mitotic Arrest (≥5%)).

Turning to `COc1cc(OC)cc(Oc2ccnc3ccc(-c4ccco4)cc23)c1` [Compound 47, 4-(3,5-Dimethoxyphenoxy)-6-(furan-2-yl)quinoline], the IC50 lay within 1 to 10 µM. Moreover, the minimal effective concentration under setting [1] lay in the range of 1 to 10 µM. Also, under “read-out: Mitotic Arrest (≥5%)”, the minimal effective concentration fell in the range of 1 to 10 µM.

`COc1cc(Oc2ccnc3ccc(Cl)cc23)cc(-n2cccn2)c1` [Compound 51, 6-Chloro-4-(3-methoxy-5-(1H-pyrazol-1-yl)phenoxy) quinoline]: the IC50 fell in the range of 0.001 to 1 µM. Also, the minimal effective concentration under setting [1] is 0.001 to 1 µM. Also, for the setting “read-out: Mitotic Arrest (≥5%)”, the minimal effective concentration was in the range of 0.001 to 1 µM.
